From US9857375B2, “Cancer marker and utilization thereof” (PUBLIC UNIVERSITY CORPORATION NARA MEDICAL UNIVERSITY, priority 2012, dated 2018) come the findings set out here.

Data set [1] has as its system human urothelial cancer cell strain KU7. The data set can be described thus: TUNEL apoptosis detection after RNA transfection. In kind it is cell-based. The conditions noted are these: 72 hours of culture after lipofection, versus control RNA. The method, then: Control RNA (QIAGEN) or ubiquilin 2 siRNA was introduced into human urothelial cancer cell strain KU7 (donated by the School of Urology at the Department of Medicine in Keio University). The ubiquilin 2 siRNA used was siRNA synthesized with 5′-[…]-3′ (SEQ ID NO. 3) of the ubiquilin 2 gene as a Target sequence. The introduction of each RNA was performed by a Lipofection technique with a Lipofectamine™ RNAimax (Life Technologies Japan Ltd.).
After 72 hours of culture of the cells transfected with the RNA, TUNEL positive cells (i.e. cells having undergone apoptosis) were detected under a fluorescence microscope by the TUNEL (Terminal deoxynucleotidyl transferase dUTP nick end labeling) technique, and the percentage of the TUNEL positive cells to the total number of cells was calculated.

Data set [2] shares this test system. The data set can be described thus: cell survival assay (MTS assay) after addition of thapsigargin. It counts as cell-based. To be noted: thapsigargin 0.1-2.5 μM, 72 hours after addition. As to the method: To a culture solution prepared by culturing, for 24 hours, cells transfected with RNA in the same manner as in Example 2, thapsigargin (Sigma Corporation), which is an endoplasmic reticulum stress agent, was added so that predetermined concentrations (0.1 μM, 0.5 μM, 1 μM, and 2.5 μM) were achieved.
Seventy-two hours after the addition of thapsigargin, a cell survival assay (MTS assay: with use of a kit from Promega KK) was performed to obtain the number of cells that survived, and the ratio (cell survival rate) of the number of cells that survived in the presence of thapsigargin to the number of cells that survived in the absence of thapsigargin was calculated.
Background: Tetrazolium assays rely on reduction of a dye to a coloured formazan, in cell work by metabolically active cells.

“ubiquilin 2 siRNA: siRNA synthesized with 5′-TCCCATAAAGAGACCCTAATA-3′ (SEQ ID NO. 3) of the ubiquilin 2 gene as a Target sequence (siRNA sequence not given here, only target site)”: in data set [1], the “apoptosis (TUNEL positive cells to DAPI positive cells, apoptosis rate)” value was “apoptosis (death of cells) was induced in the cancer cells”. Take `C/C=C(/C)C(=O)O[C@H]1C(C)=C2[C@H]([C@@H]1OC(=O)CCCCCCC)[C@@](C)(OC(C)=O)C[C@H](OC(=O)CCC)[C@@]1(O)[C@H]2OC(=O)[C@@]1(C)O` [thapsigargin]: the entries for the “cytotoxicity (cell survival rate)” value in data set [2] (KU7 cells transfected with control RNA (ubiquilin 2 gene not knocked down)) and in data set [2] (KU7 cells transfected with ubiquilin 2 siRNA (ubiquilin 2 gene knocked down)) were “hardly exhibits cytotoxicity” and “markedly enhanced cytotoxicity”, respectively.
